Reference: ChEMBL document CHEMBL3414561, “Discovery of 4'-chloromethyl-2'-deoxy-3',5'-di-O-isobutyryl-2'-fluorocytidine (ALS-8176), a first-in-class RSV polymerase inhibitor for treatment of human respiratory syncytial virus infection” (J Med Chem, 2015)
Activity calls are given as the source filed them. No cut-off for these calls is given here.

Key:
Homo sapiens [1] = species: Homo sapiens; assay: Inhibition of human DNA-directed RNA polymerase 2 using cytomegalovirus DNA fragment as substrate; conditions: concentration not given here
[2] = Inhibition of Respiratory syncytial virus RNA polymerase in crude RSV RNP complex assessed as inhibition of [33P]CMP incorporation into RNA chain
[3] = biological target: DNA-directed RNA polymerase, mitochondrial (Homo sapiens) (UniProt O00411); assay: Inhibition of human mitochondrial RNA polymerase assessed as 13-mer product using [33P]RNA/DNA primer/templates used by […] gel electrophoresis
DNA-directed RNA polymerase, mitochondrial (Homo sapiens), sequence (O00411 whole entry): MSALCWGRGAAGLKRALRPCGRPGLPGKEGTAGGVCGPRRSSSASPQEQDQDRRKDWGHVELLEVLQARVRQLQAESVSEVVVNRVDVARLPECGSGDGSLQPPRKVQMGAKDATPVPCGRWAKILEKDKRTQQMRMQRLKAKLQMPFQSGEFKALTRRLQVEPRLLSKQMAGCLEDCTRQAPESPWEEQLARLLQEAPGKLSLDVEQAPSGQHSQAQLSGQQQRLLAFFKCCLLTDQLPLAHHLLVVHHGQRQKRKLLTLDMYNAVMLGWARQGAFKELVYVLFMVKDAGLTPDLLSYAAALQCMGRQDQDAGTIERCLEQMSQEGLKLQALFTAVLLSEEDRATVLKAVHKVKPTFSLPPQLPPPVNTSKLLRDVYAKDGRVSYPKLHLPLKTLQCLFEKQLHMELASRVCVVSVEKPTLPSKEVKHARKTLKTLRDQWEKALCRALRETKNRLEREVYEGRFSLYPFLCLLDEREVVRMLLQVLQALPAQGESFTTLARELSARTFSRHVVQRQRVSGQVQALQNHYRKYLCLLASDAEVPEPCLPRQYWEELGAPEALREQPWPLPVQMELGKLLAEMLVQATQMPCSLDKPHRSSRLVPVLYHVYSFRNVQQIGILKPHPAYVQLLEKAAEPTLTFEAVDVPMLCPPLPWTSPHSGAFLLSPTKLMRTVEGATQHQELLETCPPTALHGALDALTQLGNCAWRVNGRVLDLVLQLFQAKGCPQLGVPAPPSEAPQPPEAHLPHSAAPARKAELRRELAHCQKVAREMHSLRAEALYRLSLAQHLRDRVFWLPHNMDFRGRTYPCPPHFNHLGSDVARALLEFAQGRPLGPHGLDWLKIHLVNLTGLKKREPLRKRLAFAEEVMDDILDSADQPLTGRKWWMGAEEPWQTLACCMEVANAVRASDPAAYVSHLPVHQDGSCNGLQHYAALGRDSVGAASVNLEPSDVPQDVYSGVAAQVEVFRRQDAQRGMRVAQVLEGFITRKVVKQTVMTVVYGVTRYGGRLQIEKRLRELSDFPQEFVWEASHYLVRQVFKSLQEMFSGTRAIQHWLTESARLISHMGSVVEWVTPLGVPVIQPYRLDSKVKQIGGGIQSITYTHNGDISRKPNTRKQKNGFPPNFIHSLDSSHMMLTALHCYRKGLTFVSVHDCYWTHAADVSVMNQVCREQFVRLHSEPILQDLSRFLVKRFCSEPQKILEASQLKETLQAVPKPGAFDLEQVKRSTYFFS

Homo sapiens [4] = species: Homo sapiens; assay: Inhibition of human DNA-dependent DNA polymerase gamma using calf thymus DNA/[3H]dTTP as substrate by microplate scintillation reader; conditions: concentration not given here
[5] = biological target: DNA polymerase beta (Homo sapiens) (UniProt P06746); assay: Inhibition of human DNA-dependent DNA polymerase beta using calf thymus DNA/[3H]dTTP as substrate by microplate scintillation reader; conditions: concentration not given here
Homo sapiens [6] = species: Homo sapiens; assay: Inhibition of human DNA-dependent DNA polymerase alpha using calf thymus DNA/[3H]dTTP as substrate by microplate scintillation reader; conditions: concentration not given here
Cynomolgus monkey = assay: Ratio of uridine metabolite to parent cytidine in Non-naive cynomolgus monkey at 5 mg/kg, iv; format: ADME, organism-based, Macaca fascicularis; design: dose 5 mg/kg, route intravenous; conditions: in vivo
[7] = AUCinf in male syrian golden hamster at 5 mg/kg, iv; format: ADME, organism-based, Mesocricetus auratus; design: time infinity, dose 5 mg/kg, route intravenous; conditions: plasma
[8] = Drug metabolism in human Hep2 cells assessed as nucleotide 5'-triphosphate level measured per million cells at 50 uM after 1 to 5 days by LC/MS/MS analysis; format: ADME, cell-based; conditions: hep-2, 50 µM
[9] = Drug uptake in Non-naive cynomolgus monkey assessed as lung NTP level at 5 mg/kg, iv after 1 hr; format: ADME, organism-based, Macaca fascicularis; design: dose 5 mg/kg, route intravenous; conditions: in vivo, read-out: Drug uptake
[10] = Volume of distribution at steady state in Sprague-Dawley rat at 5 mg/kg, iv; format: ADME, organism-based; design: dose 5 mg/kg, route intravenous; conditions: in vivo, read-out: Vdss
[11] = Clearance in Sprague-Dawley rat at 5 mg/kg, iv; format: ADME, organism-based; design: dose 5 mg/kg, route intravenous; conditions: in vivo
[12] = Drug metabolism in human normal bronchial epithelial cells assessed as nucleotide 5'-triphosphate level measured per million cells at 50 uM after 1 to 5 days by LC/MS/MS analysis; format: ADME, cell-based; conditions: epithelial cell
[13] = Half life in Sprague-Dawley rat at 5 mg/kg, iv; format: ADME, organism-based; design: dose 5 mg/kg, route intravenous; conditions: in vivo
[14] = Clearance in Non-naive cynomolgus monkey at 5 mg/kg, iv; format: ADME, organism-based, Macaca fascicularis; design: dose 5 mg/kg, route intravenous; conditions: in vivo
[15] = Clearance in male syrian golden hamster at 5 mg/kg, iv; format: ADME, organism-based, Mesocricetus auratus; design: dose 5 mg/kg, route intravenous; conditions: in vivo
[16] = Half life in Non-naive cynomolgus monkey at 5 mg/kg, iv; format: ADME, organism-based, Macaca fascicularis; design: dose 5 mg/kg, route intravenous; conditions: in vivo
[17] = Drug uptake in male syrian golden hamster assessed as lung NMP level at 5 mg/kg, iv after 1 hr; format: ADME, organism-based, Mesocricetus auratus; design: dose 5 mg/kg, route intravenous; conditions: in vivo, read-out: Drug uptake
[18] = AUCinf in Sprague-Dawley rat at 5 mg/kg, iv; format: ADME, organism-based; design: time infinity, dose 5 mg/kg, route intravenous; conditions: plasma
[19] = AUCinf in Non-naive cynomolgus monkey at 5 mg/kg, iv; format: ADME, organism-based, Macaca fascicularis; design: time infinity, dose 5 mg/kg, route intravenous; conditions: plasma
[20] = Drug uptake in male syrian golden hamster assessed as lung NTP level at 5 mg/kg, iv after 1 hr; format: ADME, organism-based, Mesocricetus auratus; design: dose 5 mg/kg, route intravenous; conditions: in vivo, read-out: Drug uptake
[21] = Half life in male syrian golden hamster at 5 mg/kg, iv; format: ADME, organism-based, Mesocricetus auratus; design: dose 5 mg/kg, route intravenous; conditions: in vivo
[22] = Drug metabolism in human nasal cells assessed as nucleotide 5'-triphosphate level measured per million cells at 50 uM after 1 to 5 days by LC/MS/MS analysis; format: ADME, cell-based
A549 = assay: Drug metabolism in human A549 cells assessed as nucleotide 5'-triphosphate level measured per million cells at 50 uM after 1 to 5 days by LC/MS/MS analysis; format: ADME, cell-based; conditions: a549, 50 µM
[23] = Drug uptake in Non-naive cynomolgus monkey assessed as lung NMP level at 5 mg/kg, po 4'-chloromethyl-2'-deoxy-2'-fluorocytidine equivalent dose after 12 hrs; format: ADME, organism-based, Macaca fascicularis; design: dose 5 mg/kg, route oral; conditions: in vivo, read-out: Drug uptake
Syrian golden hamster = assay: Ratio of uridine metabolite to parent cytidine in male syrian golden hamster at 5 mg/kg, iv; format: ADME, organism-based, Mesocricetus auratus; design: dose 5 mg/kg, route intravenous; conditions: in vivo
[24] = Cytotoxicity against human HeLa cells assessed as cell viability by CellTiter-Glo luminescent assay; format: cell-based
[25] = Drug uptake in Non-naive cynomolgus monkey assessed as lung NTP level at 5 mg/kg, po 4'-chloromethyl-2'-deoxy-2'-fluorocytidine equivalent dose after 12 hrs; format: ADME, organism-based, Macaca fascicularis; design: dose 5 mg/kg, route oral; conditions: in vivo, read-out: Drug uptake
[26] = Drug uptake in Non-naive cynomolgus monkey assessed as lung NMP level at 5 mg/kg, iv after 1 hr; format: ADME, organism-based, Macaca fascicularis; design: dose 5 mg/kg, route intravenous; conditions: in vivo, read-out: Drug uptake
[27] = Volume of distribution at steady state in male syrian golden hamster at 5 mg/kg, iv; format: ADME, organism-based, Mesocricetus auratus; design: dose 5 mg/kg, route intravenous; conditions: in vivo, read-out: Vdss
[28] = Volume of distribution at steady state in Non-naive cynomolgus monkey at 5 mg/kg, iv; format: ADME, organism-based, Macaca fascicularis; design: dose 5 mg/kg, route intravenous; conditions: in vivo, read-out: Vdss
[29] = system: Respiratory syncytial virus; assay: Antiviral activity against Respiratory syncytial virus subgenomic replicon system in 395 HeLa cells assessed as reduction in viral replication after 7 days by renilla luciferase assay; format: functional, organism-based; conditions: human respiratory syncytial virus, 168 h
[30] = biological target: DNA-directed RNA polymerase, mitochondrial (Homo sapiens) (UniProt O00411); assay: Binding affinity to human mitochondrial RNA polymerase assessed as compound incorporation using [33P]RNA/DNA primer/templates used by […] gel electrophoresis
[31] = system: Respiratory syncytial virus; assay: Inhibition of Respiratory syncytial virus RNA polymerase in crude RSV RNP complex assessed as inhibition of [33P]CMP incorporation into RNA chain at 10 uM
[32] = system: Respiratory syncytial virus; assay: Inhibition of Respiratory syncytial virus RNA polymerase in crude RSV RNP complex assessed as inhibition of [33P]CMP incorporation into RNA chain at 30 uM

Nc1ccn([C@@H]2O[C@](CCl)(COP(=O)(O)OP(=O)(O)OP(=O)(O)O)[C@@H](O)[C@H]2F)c(=O)n1
inhibition (Homo sapiens [1]): < 50% | IC50 [2]: 20 nM | inhibition [3]: inactive | inhibition (Homo sapiens [4]): < 50% | inhibition [5]: < 50% | inhibition (Homo sapiens [6]): < 50%

Nc1ccn([C@@H]2O[C@@](CO)(CCl)[C@@H](O)[C@H]2F)c(=O)n1 [ALS-8112]
Ratio (Cynomolgus monkey): 0.48 | AUC(0-inf) [7]: 3230 ng·h/mL | Drug metabolism [8]: 94.7 pmol | concentration [9]: 4060 nM | Vd [10]: 4.1 L/kg | clearance [11]: 31.8 mL/min/kg | Drug metabolism [12]: 581 pmol | half-life [13]: 6.01 h | clearance [14]: 28 mL/min/kg | clearance [15]: 28.6 mL/min/kg | half-life [16]: 5.44 h | concentration [17]: 287 nM | AUC(0-inf) [18]: 2670 ng·h/mL | AUC(0-inf) [19]: 2980 ng·h/mL | concentration [20]: 70.9 nM | half-life [21]: 3.98 h | Drug metabolism [22]: 185 pmol | Drug metabolism (A549): 137 pmol | concentration [23]: 254 nM | Ratio (Syrian golden hamster): 0.025 | CC50 [24]: > 100000 nM | concentration [25]: 185 nM | concentration [26]: 9920 nM | Vd [27]: 2.3 L/kg | Vd [28]: 3 L/kg | EC50 [29]: 150 nM

CC[C@]1(COP(=O)(O)OP(=O)(O)OP(=O)(O)O)O[C@@H](n2ccc(N)nc2=O)[C@H](F)[C@@H]1O
inhibition (Homo sapiens [1]): < 50% | IC50 [2]: 150 nM | inhibition [3]: inactive | inhibition (Homo sapiens [4]): < 50% | inhibition [5]: < 50% | inhibition (Homo sapiens [6]): < 50%

Nc1ccn([C@@H]2O[C@@](CO)(CF)[C@@H](O)[C@H]2F)c(=O)n1
Ratio (Cynomolgus monkey): 3.39 | Drug metabolism [8]: 27.9 pmol | concentration [9]: 374 nM | Vd [10]: 1.87 L/kg | clearance [11]: 2.69 mL/min/kg | Drug metabolism [12]: 153 pmol | half-life [13]: 9.49 h | clearance [14]: 54.3 mL/min/kg | half-life [16]: 7.66 h | AUC(0-inf) [18]: 31800 ng·h/mL | AUC(0-inf) [19]: 1540 ng·h/mL | Drug metabolism [22]: 240 pmol | Drug metabolism (A549): 55 pmol | CC50 [24]: > 100000 nM | concentration [26]: 5580 nM | Vd [28]: 5.6 L/kg | EC50 [29]: 160 nM

[N-]=[N+]=N[C@]1(COP(=O)(O)OP(=O)(O)OP(=O)(O)O)O[C@@H](n2ccc(N)nc2=O)C(F)(F)[C@@H]1O
inhibition (Homo sapiens [1]): < 50% | IC50 [2]: 300 nM | inhibition [3]: inactive | inhibition (Homo sapiens [4]): < 50% | inhibition [5]: < 50% | inhibition (Homo sapiens [6]): < 50%

Nc1ccn([C@@H]2O[C@](CF)(COP(=O)(O)OP(=O)(O)OP(=O)(O)O)[C@@H](O)[C@H]2F)c(=O)n1
inhibition (Homo sapiens [1]): < 50% | Activity [30]: Active | IC50 [2]: 120 nM | inhibition [3]: Active | inhibition (Homo sapiens [4]): < 50% | inhibition [5]: < 50% | inhibition (Homo sapiens [6]): < 50%

CC(C)[C@H](N)C(=O)O[C@H]1[C@@H](F)[C@H](n2ccc(N)nc2=O)O[C@@]1(CO)CCl
concentration [23]: 861 nM | CC50 [24]: > 100000 nM | concentration [25]: 915 nM | EC50 [29]: 60 nM

CC[C@]1(CO)O[C@@H](n2ccc(N)nc2=O)[C@H](F)[C@@H]1O
Ratio (Cynomolgus monkey): 0.67 | AUC(0-inf) [7]: 2460 ng·h/mL | Drug metabolism [8]: 119 pmol | concentration [9]: 3070 nM | Vd [10]: 1.67 L/kg | clearance [11]: 25.5 mL/min/kg | Drug metabolism [12]: 489 pmol | half-life [13]: 1.34 h | clearance [14]: 19.2 mL/min/kg | clearance [15]: 34.1 mL/min/kg | half-life [16]: 7.52 h | concentration [17]: 144 nM | AUC(0-inf) [18]: 3140 ng·h/mL | AUC(0-inf) [19]: 4360 ng·h/mL | concentration [20]: 42.2 nM | half-life [21]: 1.23 h | Drug metabolism [22]: 140 pmol | Drug metabolism (A549): 85.1 pmol | Ratio (Syrian golden hamster): 0.0005 | CC50 [24]: > 100000 nM | concentration [26]: 3310 nM | Vd [27]: 1.07 L/kg | Vd [28]: 1.8 L/kg | EC50 [29]: 420 nM

Nc1ccn([C@@H]2O[C@](CCl)(COP(=O)(O)OP(=O)(O)OP(=O)(O)O)[C@@H](O)C2(F)F)c(=O)n1
inhibition [31]: 38%

Nc1ccn([C@@H]2O[C@](CCl)(COP(=O)(O)OP(=O)(O)OP(=O)(O)O)[C@@H](O)[C@@H]2O)c(=O)n1
inhibition [32]: 6%

CC(C)C(=O)OC[C@@]1(CCl)O[C@@H](n2ccc(N)nc2=O)[C@H](F)[C@@H]1OC(=O)C(C)C [LUMICITABINE]
concentration [23]: 679 nM | CC50 [24]: > 100000 nM | concentration [25]: 1480 nM | EC50 [29]: 260 nM
